Laboratory results taken from patent publication US20060069132A1, “Azolecarboxamide herbicides” (priority 2004, published 2006).

Columns and labels:
kochia = assay: Test C pre-/postemergence herbicide test; assay type: in vivo, Kochia scoparia
Outline: (§1)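 Visual ratings on a 0–100 scale (100 = complete control) made versus untreated controls after 12 to 14 greenhouse days. Test chemicals, formulated in surfactant-containing non-phytotoxic solvent, applied preemergence to planted seeds or postemergence to 1- to 4-leaf plants (2 to 18 cm).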

barnyardgrass = assay: Test A pre-/postemergence herbicide test; assay type: in vivo, Echinochloa crus-galli; details: for Plant response rating, Barnyardgrass: Postemergence; for Barnyardgrass plant response rating: Preemergence
Outline: (§2)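 Visual injury scores on a 0–100 scale (100 = complete control) taken about ten days post-treatment in greenhouse against untreated controls; dash means no result. Treatments: preemergence soil spray and postemergence spray to runoff on one- to two-leaf plants 2 to 10 cm tall, surfactant-containing formulation.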

johnsongrass = assay: Test C pre-/postemergence herbicide test; assay type: in vivo, Sorghum halepense
Outline: as §1

common ragweed = assay: Test C pre-/postemergence herbicide test; assay type: in vivo, Ambrosia elatior; set-up: key to Plant response rating, Ragweed: 0 = no effect, 100 = complete control
Outline: as §1

giant foxtail [1] = assay: Test A pre-/postemergence herbicide test; assay type: in vivo, Setaria faberi; details: for Plant response rating, Foxtail, Giant: Postemergence; for Foxtail, Giant plant response rating: Preemergence
Outline: as §2

giant foxtail [2] = assay: Test C pre-/postemergence herbicide test; assay type: in vivo, Setaria faberi
Outline: as §1

corn = assay: Test C pre-/postemergence herbicide test; assay type: in vivo, Zea mays
Outline: as §1

large crabgrass = assay: Test A pre-/postemergence herbicide test; assay type: in vivo, Digitaria sanguinalis; details: for Plant response rating, Crabgrass, Large: Postemergence; for Crabgrass, Large plant response rating: Preemergence
Outline: as §2

[3] = 31 g ai/ha, preemergence, scale 0 to 100
[4] = 125 g ai/ha, scale 0 (no effect) to 100 (complete control), visual, 12 to 14 days, preemergence
[5] = Postemergence, 125 g ai/ha, scale 0 to 100, 0 no effect, 100 complete control
[6] = postemergence, 62 g ai/ha, scale 0 to 100
[7] = 500 g ai/ha, 0 to 100 scale, 0 no effect, 100 complete control
[8] = 2000 g ai/ha, 0 to 100 scale, 0 no effect, 100 complete control
[9] = 500 g ai/ha, visual rating, 0 to 100 scale (0 no effect, 100 complete control)
[10] = 250 g ai/ha, scale 0 to 100 (0 no effect, 100 complete control), visual, 12 to 14 days, preemergence
[11] = Postemergence, 250 g ai/ha, scale 0 to 100, 0 no effect, 100 complete control
[12] = Preemergence, 500 g ai/ha, scale 0 to 100, 0 no effect, 100 complete control

## CCNC(=O)c1cccc(NC(=O)c2cc(C(C)(C)C)nn2CCF)c1 [Compound 35]
kochia; [3]
  Plant response rating, Kochia: 0
kochia; 62 g ai/ha, preemergence
  Plant response rating (0 = no effect, 100 = complete control), Kochia: 10
kochia; [4]
  Plant response rating, Kochia: 10
kochia; [5]
  Plant response rating, Kochia: 90
kochia; [6]
  Plant response rating, Kochia: 90
barnyardgrass; [7]
  Plant response rating, Barnyardgrass: 70
barnyardgrass; [8]
  Plant response rating, Barnyardgrass: 85
  Barnyardgrass plant response rating: 90
barnyardgrass; [9]
  Barnyardgrass plant response rating: 70
johnsongrass; [3]
  Plant response rating, Johnsongrass: 10
johnsongrass; 62 g ai/ha, preemergence
  Plant response rating (0 = no effect, 100 = complete control), Johnsongrass: 50
johnsongrass; [4]
  Plant response rating, Johnsongrass: 70
johnsongrass; [5]
  Plant response rating, Johnsongrass: 70
johnsongrass; [6]
  Plant response rating, Johnsongrass: 70
Common ragweed; [3]
  Plant response rating, Ragweed: 0
Common ragweed; 62 g ai/ha, preemergence
  Plant response rating (0 = no effect, 100 = complete control), Ragweed: 10
Common ragweed; [4]
  Plant response rating, Ragweed: 80
Common ragweed; postemergence, 125 g ai/ha, scale 0 to 100
  Plant response rating, Ragweed: 50
Common ragweed; [6]
  Plant response rating, Ragweed: 50
Giant foxtail [1]; [7]
  Plant response rating, Foxtail, Giant: 50
Giant foxtail [1]; [8]
  Plant response rating, Foxtail, Giant: 70
  Foxtail, Giant plant response rating: 100
Giant foxtail [1]; [9]
  Foxtail, Giant plant response rating: 80
Giant foxtail [2]; [3]
  Plant response rating, Foxtail, Giant: 0
Giant foxtail [2]; 62 g ai/ha, preemergence
  Plant response rating (0 = no effect, 100 = complete control), Foxtail, Giant: 20
Giant foxtail [2]; [4]
  Plant response rating, Foxtail, Giant: 30
Giant foxtail [2]; [5]
  Plant response rating, Foxtail, Giant: 40
Giant foxtail [2]; [6]
  Plant response rating, Foxtail, Giant: 40
corn; [3]
  Plant response rating, Corn: 0
corn; 62 g ai/ha, preemergence
  Plant response rating (0 = no effect, 100 = complete control), Corn: 0
corn; [4]
  Plant response rating, Corn: 0
corn; [5]
  Plant response rating, Corn: 40
corn; [6]
  Plant response rating, Corn: 30
Large crabgrass; [7]
  Plant response rating, Crabgrass, Large: 55
Large crabgrass; [8]
  Plant response rating, Crabgrass, Large: 60
  Crabgrass, Large plant response rating: 100
Large crabgrass; [9]
  Crabgrass, Large plant response rating: 95

## CCn1nc(C(C)(C)C)cc1C(=O)Nc1cccc(C(=O)NC2CC2)c1 [Compound 44]
kochia; 62 g ai/ha, preemergence
  Plant response rating (0 = no effect, 100 = complete control), Kochia: 0
kochia; [4]
  Plant response rating, Kochia: 10
kochia; [10]
  Plant response rating, Kochia: 10
kochia; [5]
  Plant response rating, Kochia: 90
kochia; [11]
  Plant response rating, Kochia: 90
kochia; [6]
  Plant response rating, Kochia: 90
barnyardgrass; [7]
  Plant response rating, Barnyardgrass: 90
barnyardgrass; [8]
  Plant response rating, Barnyardgrass: 100
  Barnyardgrass plant response rating: 90
barnyardgrass; [9]
  Barnyardgrass plant response rating: 75
johnsongrass; 62 g ai/ha, preemergence
  Plant response rating (0 = no effect, 100 = complete control), Johnsongrass: 30
johnsongrass; [4]
  Plant response rating, Johnsongrass: 30
johnsongrass; [10]
  Plant response rating, Johnsongrass: 50
johnsongrass; [5]
  Plant response rating, Johnsongrass: 30
johnsongrass; [11]
  Plant response rating, Johnsongrass: 40
johnsongrass; [6]
  Plant response rating, Johnsongrass: 30
Common ragweed; 62 g ai/ha, preemergence
  Plant response rating (0 = no effect, 100 = complete control), Ragweed: 0
Common ragweed; [4]
  Plant response rating, Ragweed: 30
Common ragweed; [10]
  Plant response rating, Ragweed: 70
Common ragweed; [11]
  Plant response rating, Ragweed: 90
Common ragweed; [6]
  Plant response rating, Ragweed: 50
Giant foxtail [1]; [7]
  Plant response rating, Foxtail, Giant: 50
Giant foxtail [1]; [8]
  Plant response rating, Foxtail, Giant: 90
  Foxtail, Giant plant response rating: 100
Giant foxtail [1]; [9]
  Foxtail, Giant plant response rating: 65
Giant foxtail [2]; 62 g ai/ha, preemergence
  Plant response rating (0 = no effect, 100 = complete control), Foxtail, Giant: 10
Giant foxtail [2]; [4]
  Plant response rating, Foxtail, Giant: 10
Giant foxtail [2]; [10]
  Plant response rating, Foxtail, Giant: 10
Giant foxtail [2]; [5]
  Plant response rating, Foxtail, Giant: 30
Giant foxtail [2]; [11]
  Plant response rating, Foxtail, Giant: 50
Giant foxtail [2]; [6]
  Plant response rating, Foxtail, Giant: 30
corn; 62 g ai/ha, preemergence
  Plant response rating (0 = no effect, 100 = complete control), Corn: 0
corn; [4]
  Plant response rating, Corn: 0
corn; [10]
  Plant response rating, Corn: 0
corn; [5]
  Plant response rating, Corn: 70
corn; [11]
  Plant response rating, Corn: 80
corn; [6]
  Plant response rating, Corn: 70
Large crabgrass; [7]
  Plant response rating, Crabgrass, Large: 55
Large crabgrass; [8]
  Plant response rating, Crabgrass, Large: 80
  Crabgrass, Large plant response rating: 90
Large crabgrass; [9]
  Crabgrass, Large plant response rating: 45

## CCn1nc(C(C)(C)C)cc1C(=O)Nc1cccc(C(=O)NCC(C)C)c1 [Compound 61]
kochia; 62 g ai/ha, preemergence
  Plant response rating (0 = no effect, 100 = complete control), Kochia: 10
kochia; [4]
  Plant response rating, Kochia: 100
kochia; [10]
  Plant response rating, Kochia: 100
kochia; [12]
  Kochia plant response rating: 100
barnyardgrass; [7]
  Plant response rating, Barnyardgrass: 35
barnyardgrass; [8]
  Plant response rating, Barnyardgrass: 90
  Barnyardgrass plant response rating: 75
barnyardgrass; [9]
  Barnyardgrass plant response rating: 40
johnsongrass; 62 g ai/ha, preemergence
  Plant response rating (0 = no effect, 100 = complete control), Johnsongrass: 10
johnsongrass; [4]
  Plant response rating, Johnsongrass: 30
johnsongrass; [10]
  Plant response rating, Johnsongrass: 50
johnsongrass; [12]
  Johnsongrass plant response rating: 60
Common ragweed; 62 g ai/ha, preemergence
  Plant response rating (0 = no effect, 100 = complete control), Ragweed: 0
Common ragweed; [4]
  Plant response rating, Ragweed: 0
Common ragweed; [10]
  Plant response rating, Ragweed: 80
Common ragweed; [12]
  Ragweed plant response rating: 80
Giant foxtail [1]; [7]
  Plant response rating, Foxtail, Giant: 20
Giant foxtail [1]; [8]
  Plant response rating, Foxtail, Giant: 85
  Foxtail, Giant plant response rating: 75
Giant foxtail [1]; [9]
  Foxtail, Giant plant response rating: 20
Giant foxtail [2]; 62 g ai/ha, preemergence
  Plant response rating (0 = no effect, 100 = complete control), Foxtail, Giant: 0
Giant foxtail [2]; [4]
  Plant response rating, Foxtail, Giant: 20
Giant foxtail [2]; [10]
  Plant response rating, Foxtail, Giant: 40
Giant foxtail [2]; [12]
  Foxtail, Giant plant response rating: 60
corn; 62 g ai/ha, preemergence
  Plant response rating (0 = no effect, 100 = complete control), Corn: 0
corn; [4]
  Plant response rating, Corn: 0
corn; [10]
  Plant response rating, Corn: 0
corn; [12]
  Corn plant response rating: 0
Large crabgrass; [7]
  Plant response rating, Crabgrass, Large: 30
Large crabgrass; [8]
  Plant response rating, Crabgrass, Large: 45
  Crabgrass, Large plant response rating: 90
Large crabgrass; [9]
  Crabgrass, Large plant response rating: 75
